{"source": "paper PMC5402304", "about": "“Oxoaporphine Metal Complexes (Co^II, Ni^II, Zn^II) with High Antitumor Activity by Inducing Mitochondria-Mediated Apoptosis and S-phase Arrest in HepG2” (Scientific Reports, 2017)", "key": {"T-24": {"test_system": "T-24", "experiment": "MTT cytotoxicity assay, T-24", "type": "cell-based, human", "experimental": "(§1) The in vitro cytotoxicity of OD, 1–3 and the corresponding metal salts were determined by MTT assay towards a panel of human tumor cells including HepG2, T-24, BEL-7404, MGC80-3, SK-OV-3/DDP and normal HL-7702 cells. As the positive control, cisplatin was dissolved at a concentration of 1 mM in 0.154 M NaCl[32].\n(§2) The human tumor cell lines (BEL-7404, HepG2, MGC80–3, T-24, SK-OV-3/DDP and HeLa cells) and the human normal liver cell line HL-7702 were obtained from Shanghai Cell Bank in Chinese Academy of Sciences. Cells were cultured in Dulbecco’s modified Eagle’s medium (DMEM) or RPMI-1640 medium, which supplemented with 10% fetal bovine serum (FBS) and 100 U/mL penicillin and streptomycin. Cells were cultured at 37 °C in a humidified atmosphere with 5% CO2/95% air. Tested compounds (2.0 mM) were prepared as DMSO stock solution before they were diluted to working concentrations by PBS buffer (containing 0.5% DMSO), while cisplatin dissolved in 0.9% sodium chloride solution was used as positive controls.\n(§3) Cells in their logarithmic phase were seeded in 96-well plates with 5.5 × 10^3/180 μL per well for 24 h. Then 20 μL of compounds at various concentrations were added to each well to achieve final concentrations of 1.25, 2.5, 5.0, 10.0, and 20.0 μM. All the cells were incubated with test compounds for another 48 h before MTT assay. Control wells contained media with 0.5% DMSO. After 48 h of cultivation, 10 μL of MTT (5 mg/mL in PBS) was added to each well, and cells were incubated at 37 °C for 6 h. The contents in the wells were pipetted out carefully, and the formazan crystals formed were dissolved in 100 μL of DMSO, and the absorbance was measured by enzyme labeling instrument with 490 nm/630 nm double wavelength measurement. The IC50 value was defined as a drug concentration killing 50% cells in comparison with untreated controls, which was calculated by the Bliss method (n = 5). All tests were repeated in at least three independent trials."}, "caspase-3": {"test_system": "caspase-3", "experiment": "Caspase-3 activation by flow cytometry (CaspGLOW)", "type": "cell-based, human", "conditions": "HepG2, 1.0 μM, 24 h; control 4.2%", "experimental": "(§4) Caspase family is closely related to the cell apoptosis via the mitochondrial pathway, especially caspases-3, -8 and -9. To better understand the antitumor mechanisms, it needs to confirm whether caspase-3, -8 and -9 are activated when the tumor cells are treated with 1–3.\n(§5) The measurement of caspase-3, -8 and -9’s activities was performed by CaspGLOW fluorescein active caspase-3, -8 and -9 staining kit. HepG2 cells were treated with 1 μM 1–3 for 24 h, harvested at a density of 1 × 10^6 cells/mL, and then suspended in 300 μL volume with PBS. To the suspension, 1 μL of caspase-3 inhibitor (FITC-DEVD-FMK), caspase-8 inhibitor (FITC-IETD-FMK) or caspase-9 inhibitor (FITC-LEHD-FMK) was consequently added and incubated for 1 h at 37 °C in 5% CO2 incubator. The cells were then examined by a FACSAria II flow cytometer equipped with a 488 nm argon laser. The results were represented as the percent change on the activity compared with the control."}, "caspase-8": {"test_system": "caspase-8", "experiment": "Caspase-8 activation by flow cytometry (CaspGLOW)", "type": "cell-based, human", "conditions": "HepG2, 1.0 μM, 24 h; control 1.8%", "experimental": "as §4, §5"}, "[1]": {"experiment": "Body weight of mice in the HepG2 xenograft model", "type": "in vivo, BALB/c nude mice", "conditions": "3.0 and 6.0 mg/kg ip daily, versus solvent control group", "experimental": "To further evaluate the in vivo antitumor efficacy of these complexes, 3 was selected to inhibit tumor growth in a HepG2 xenografts model. The mice were randomized into control group, 3-treated groups and positive control group (n = 6). Once the tumor had grown to an average volume of about 100 mm^3, two group of nude mice were injected intraperitoneally (ip) of 3 at a high dose (6.0 mg/kg) and a low (3.0 mg/kg) dose daily for 20 days, respectively. Cisplatin was used as positive control injected at 2.0 mg/kg every two days, while control group received solvents only.\nBALB/c nude mice (male, 17–20 g, 5–6 weeks old) were supplied by Guangxi Medical University Laboratory Animal Centre (Guangxi, China, approval no. SCXK 2014–0002 and SYXK 2014–0003). All of the experimental procedures were carried out according to the NIH Guidelines for the Care and Use of Laboratory Animals. Animal experiments were approved by the Animal Care and Use Committee of Guangxi Medical University. Animal were housed at IVC system (individual ventilated caging) with conditions of constant photoperiod (12 h light/12 h dark at 25−28 °C and 45−65% humidity). The xenograft tumor model was established in the same way as we reported before. […]\nThe tumor volumes and body weight were measured every 3 days, and tumor size was calculated as volume = (w^2l)/2, where w is the width and l is the length in mm of tumor[70]. […]"}, "HepG2": {"test_system": "HepG2", "experiment": "MTT cytotoxicity assay, HepG2", "type": "cell-based, human", "experimental": "as §1, §2, §3"}, "HL-7702": {"test_system": "HL-7702", "experiment": "MTT cytotoxicity assay, normal liver cells HL-7702", "type": "cell-based, human", "conditions": "48 h", "experimental": "as §1, §2, §3"}, "SK-OV-3/DDP": {"test_system": "SK-OV-3/DDP", "experiment": "MTT cytotoxicity assay, SK-OV-3/DDP", "type": "cell-based, human", "conditions": "48 h", "experimental": "as §1, §2, §3"}, "HepG2 xenograft": {"test_system": "HepG2 xenograft", "experiment": "HepG2 xenograft nude mice model, tumor growth inhibition", "type": "in vivo, BALB/c nude mice", "method": "BALB/c nude mice (male, 17–20 g, 5–6 weeks old) were supplied by Guangxi Medical University Laboratory Animal Centre (Guangxi, China, approval no. SCXK 2014–0002 and SYXK 2014–0003). All of the experimental procedures were carried out according to the NIH Guidelines for the Care and Use of Laboratory Animals. Animal experiments were approved by the Animal Care and Use Committee of Guangxi Medical University. Animal were housed at IVC system (individual ventilated caging) with conditions of constant photoperiod (12 h light/12 h dark at 25−28 °C and 45−65% humidity). The xenograft tumor model was established in the same way as we reported before[30]. The maximum solubility of 3 in DMSO/saline solvent (v/v, 5/100) with administration volume 0.8 mL/20 g was used as the high dose (6.0 mg/kg) group (n = 6). Meanwhile low dose group mice got 3.0 mg/kg, intraperitoneal injection every day, and the control group received corresponding solvent. The positive control group was administered with cisplatin at 2.0 mg/kg every two days by intraperitoneal injection (cisplatin dissolved in saline).\nThe tumor volumes and body weight were measured every 3 days, and tumor size was calculated as volume = (w^2l)/2, where w is the width and l is the length in mm of tumor[70]. On day 21, the mice were sacrificed, and the tumor tissue was dissected out and weighted. The in vivo antitumor activity is evaluated by two indicators[71][72]: the tumor relative increment rate (T/C = TRTV/CRTV × 100%) and tumor weight inhibition rate [IR = (Wc − Wt)/Wc × 100%,], where TRTV and CRTV were the RTV of treated group and control group, respectively (RTV: relative tumor volume, RTV = Vt /V0); Wt and Wc are the average tumor weight of complex-treated and vehicle controlled group, respectively."}}, "note": "“And” between values parts separate entries of the source, which are not always exact repeats. Identical values can stand only once."}
{"substance": "[Zn(OD)2(H2O)2] (ClO4)2 [Complex 3]", "values": [{"measurement": "inhibitive ratio", "setting": "T-24; T-24, 20 μmol/L, 48 h", "result": "84.16±0.76", "unit": "%"}, {"measurement": "IC50", "setting": "T-24; T-24, 48 h, MTT", "result": "510 ± 170", "unit": "nM"}, {"measurement": "proportion of activated caspase-3", "setting": "caspase-3", "result": "36.9% and 36.5%"}, {"measurement": "proportion of activated caspase-8", "setting": "caspase-8", "result": 41.5, "unit": "%"}, {"measurement": "in vivo toxic effect (loss in body weight)", "setting": "[1]", "result": "no significant loss in body weight"}, {"measurement": "inhibitive ratio", "setting": "HepG2; HepG2, 20 μmol/L, 48 h", "result": "89.58±1.22", "unit": "%"}, {"measurement": "IC50", "setting": "HepG2; HepG2, 48 h, MTT", "result": "390 ± 30", "unit": "nM"}, {"measurement": "inhibitive ratio", "setting": "HL-7702; HL-7702, 20 μmol/L", "result": "59.26±0.15", "unit": "%"}, {"measurement": "IC50", "setting": "HL-7702; HL-7702 normal liver cells, MTT", "result": "7130 ± 460", "unit": "nM"}, {"measurement": "IC50", "setting": "SK-OV-3/DDP; SK-OV-3/DDP, MTT", "result": "570 ± 70", "unit": "nM"}, {"measurement": "inhibitive ratio", "setting": "SK-OV-3/DDP; SKOV-3/DDP, 20 μmol/L", "result": "70.80±1.69", "unit": "%"}, {"measurement": "IR (tumor weight inhibition rate)", "setting": "HepG2 xenograft; 3.0 mg/kg ip daily for 20 days", "result": 26.4, "unit": "%"}, {"measurement": "T/C (tumor relative increment rate)", "setting": "HepG2 xenograft; 3.0 mg/kg ip daily for 20 days", "result": 75.49, "unit": "%"}, {"measurement": "IR (tumor weight inhibition rate)", "setting": "HepG2 xenograft; 6.0 mg/kg ip daily for 20 days", "result": 32.8, "unit": "%"}, {"measurement": "T/C (tumor relative increment rate)", "setting": "HepG2 xenograft; 6.0 mg/kg ip daily for 20 days", "result": 55.57, "unit": "%"}]}
